Where a chain is given by its changes, count along the chain named. Where two headings read alike, the source gives them in different places. Square brackets hold non-standard residues; d marks the D form. Peptide text beside a SMILES is read from it. pY = N[C@@H](Cc1ccc(OP(=O)(O)O)cc1)C(=O)O
What was measured:
SHIP2-SH2 (wild type) [1] = target: T1, SHIP2-SH2 (wild type) (Homo sapiens, UniProt O15357); assay: Fluorescence polarization binding of FAM-labeled phosphopeptides to wild-type SHIP2-SH2; details: FP assay, N-terminally FAM-labeled phosphopeptide 100 nM, 20 mM Tris, 100 mM NaCl, 10 mM DTT, 0.02% NaN3, pH 7.5, each reaction repeated three times, averaged, ± standard error of curve fitting, read-out: dissociation constant (KD) for wild-type SHIP2-SH2
T1 construct: The SHIP2 SH2 domain (hereafter represented by SHIP2-SH2); made in house
T1 sequence (O15357 21-117 limits assumed): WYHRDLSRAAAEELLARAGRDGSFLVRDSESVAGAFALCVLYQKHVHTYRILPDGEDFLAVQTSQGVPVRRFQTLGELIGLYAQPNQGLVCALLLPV
Experimental: (§1) Expression and purification of wild-type SHIP2-SH2 and its mutants including R28A, S49A, E50A, S51A, R70A, S84A and Q107A were carried out using the previously described method, and circular dichroism (CD) spectra were collected to confirm no obvious secondary structure change of the mutants. The purified proteins were concentrated to a final concentration of 0.2 mM for NMR experiments in the NMR buffer containing 90% H2O/10% D2O (v/v), 20 mM Tris, 100 mM NaCl, 10 mM DTT and 0.02% NaN3 at pH 7.5. Peptides derived from the four types of EPIYA motifs were synthesized by GL Biochem Ltd. (Shanghai, China). Tyr-phosphorylated peptides included: 8-mer (E-P-I-pY-A-K-V-N) and 13-mer (E-N-E-P-I-pY-A-K-V-N-K-K-K) EPIYA-A; 8-mer (E-P-I-pY-A-Q-V-A) and 13-mer (P-E-E-P-I-pY-A-Q-V-A-K-K-V) EPIYA-B; and 8-mer EPIYA-CD (E-P-I-pY-A-T-I-D), 13-mer EPIYA-C (S-P-E-P-I-pY-A-T-I-D-D-L-G) and 13-mer EPIYA-D (S-P-E-P-I-pY-A-T-I-D-F-D-E). The purities of the peptides were determined to be above 98% by high performance liquid chromatography (HPLC) and the molecular weights were confirmed by electrospray ionization mass spectrometry (ESI-MS).
(§2) The used phosphopeptides for different versions of CagA EPIYA A/B/C/D motifs were labeled with FAM at the N-terminal end and dissolved in a buffer containing 20 mM Tris, 100 mM NaCl, 10 mM DTT and 0.02% NaN3, at pH 7.5. The peptide concentration was kept at 100 nM, while wild-type SHIP2-SH2 and its mutants were serially diluted with the concentrations ranging from micromolar to nanomolar, and then mixed with the peptide, respectively. FP values of FAM-labeled peptides bound by SHIP2-SH2 were measured using a SpectraMax i3x multi-mode plate reader (Molecular Devices) by recording the excitation at 485 nm and emission at 528 nm. Each binding reaction was repeated three times, and the polarization values were averaged (given in units of mP). The averaged polarization value of each titration point was subtracted from that of the free peptide to obtain the final value. The dissociation constants (KD) were calculated using the final polarization value of each titration point as previously described.

SHIP2-SH2 R70A = target: T2, SHIP2-SH2 R70A (Homo sapiens, UniProt O15357, R70A); assay: Fluorescence polarization binding, SHIP2-SH2 mutant R70A; details: FP assay; FAM-labeled 13-mer phosphopeptide 100 nM; pH 7.5; n = 3 averaged; ± standard error of fitting; SEM; read-out: dissociation constant (KD) for SHIP2-SH2 R70A
T2 construct: The SHIP2 SH2 domain (hereafter represented by SHIP2-SH2); made in house
T2 sequence (O15357 21-117 R70A limits assumed): T1 sequence (O15357 21-117 limits assumed) with R50A
Experimental: as §1, §2

SHIP2-SH2 S51A = target: T3, SHIP2-SH2 S51A (Homo sapiens, UniProt O15357, S51A); assay: Fluorescence polarization binding, SHIP2-SH2 mutant S51A; details: FP assay; FAM-labeled 13-mer phosphopeptide 100 nM; pH 7.5; n = 3 averaged; ± standard error of fitting; SEM; read-out: dissociation constant (KD) for SHIP2-SH2 S51A
T3 construct: The SHIP2 SH2 domain (hereafter represented by SHIP2-SH2); made in house
T3 sequence (O15357 21-117 S51A limits assumed): T1 sequence (O15357 21-117 limits assumed) with S31A
Experimental: as §1, §2

SHIP2-SH2 E50A = target: T4, SHIP2-SH2 E50A (Homo sapiens, UniProt O15357, E50A); assay: Fluorescence polarization binding, SHIP2-SH2 mutant E50A; details: FP assay; FAM-labeled 13-mer phosphopeptide 100 nM; pH 7.5; n = 3 averaged; ± standard error of fitting; SEM; read-out: dissociation constant (KD) for SHIP2-SH2 E50A
T4 construct: The SHIP2 SH2 domain (hereafter represented by SHIP2-SH2); made in house
T4 sequence (O15357 21-117 E50A limits assumed): T1 sequence (O15357 21-117 limits assumed) with E30A
Experimental: as §1, §2

SHIP2-SH2 Q107A = target: T5, SHIP2-SH2 Q107A (Homo sapiens, UniProt O15357, Q107A); assay: Fluorescence polarization binding, SHIP2-SH2 mutant Q107A; details: FP assay; FAM-labeled 13-mer phosphopeptide 100 nM; pH 7.5; n = 3 averaged; ± standard error of fitting; SEM; read-out: dissociation constant (KD) for SHIP2-SH2 Q107A
T5 construct: The SHIP2 SH2 domain (hereafter represented by SHIP2-SH2); made in house
T5 sequence (O15357 21-117 Q107A limits assumed): T1 sequence (O15357 21-117 limits assumed) with Q87A
Experimental: as §1, §2

SHIP2-SH2 S84A = target: T6, SHIP2-SH2 S84A (Homo sapiens, UniProt O15357, S84A); assay: Fluorescence polarization binding, SHIP2-SH2 mutant S84A; details: FP assay; FAM-labeled 13-mer phosphopeptide 100 nM; pH 7.5; n = 3 averaged; ± standard error of fitting; SEM; read-out: dissociation constant (KD) for SHIP2-SH2 S84A
T6 construct: The SHIP2 SH2 domain (hereafter represented by SHIP2-SH2); made in house
T6 sequence (O15357 21-117 S84A limits assumed): T1 sequence (O15357 21-117 limits assumed) with S64A
Experimental: as §1, §2

SHIP2-SH2 R28A = target: T7, SHIP2-SH2 R28A (Homo sapiens, UniProt O15357, R28A); assay: Fluorescence polarization binding, SHIP2-SH2 mutant R28A; details: FP assay; FAM-labeled 13-mer phosphopeptide 100 nM; pH 7.5; n = 3 averaged; ± standard error of fitting; SEM; read-out: dissociation constant (KD) for SHIP2-SH2 R28A
T7 construct: The SHIP2 SH2 domain (hereafter represented by SHIP2-SH2); made in house
T7 sequence (O15357 21-117 R28A limits assumed): T1 sequence (O15357 21-117 limits assumed) with R8A
Experimental: as §1, §2

SHIP2-SH2 S49A = target: T8, SHIP2-SH2 S49A (Homo sapiens, UniProt O15357, S49A); assay: Fluorescence polarization binding, SHIP2-SH2 mutant S49A; details: FP assay; FAM-labeled 13-mer phosphopeptide 100 nM; pH 7.5; n = 3 averaged; ± standard error of fitting; SEM; read-out: dissociation constant (KD) for SHIP2-SH2 S49A
T8 construct: The SHIP2 SH2 domain (hereafter represented by SHIP2-SH2); made in house
T8 sequence (O15357 21-117 S49A limits assumed): T1 sequence (O15357 21-117 limits assumed) with S29A
Experimental: as §1, §2

SHIP2-SH2 (wild type) [2] = target: T1, SHIP2-SH2 (wild type); details: summary Figure 6F, value from the authors' earlier NMR/FP study, cited from earlier work
Text: Figure 6 The binding interface and affinity of SHIP2-SH2 for different native ligands. The binding interface of SHIP2-SH2 for FcgR2B ITIM (A), CagA EPIYA-C/D (B), c-MET C-terminus (C), CagA EPIYA-A/B (D) is colored in blue. The additional interface of SHIP2-SH2 for 13-mer FcgR2B ITIM compared to 8-mer FcgR2B ITIM is colored in green. The interface was drawn according to the residues of SHIP2-SH2 showing a CSP greater than 0.2 ppm in NMR titration experiments with respective ligand. (E) The summarized three regions of SHIP2-SH2 which are differently engaged for binding different ligands are hig ...

Row | Compound | Kd (SHIP2-SH2 (wild type) [1]) | Kd (SHIP2-SH2 R70A) | Kd (SHIP2-SH2 S51A) | Kd (SHIP2-SH2 E50A) | Kd (SHIP2-SH2 Q107A) | Kd (SHIP2-SH2 S84A) | Kd (SHIP2-SH2 R28A) | Kd (SHIP2-SH2 S49A) | Kd (SHIP2-SH2 (wild type) [1]; SEM) | Kd (SHIP2-SH2 (wild type) [2]; read-out: Binding Affinities KD for SHIP2-SH2 (FcgR2B ITIM phosphopeptide)) | Kd (SHIP2-SH2 (wild type) [2]; read-out: Binding Affinities KD for SHIP2-SH2 (c-MET phosphopeptide))
1 | CC[C@H](C)[C@H](NC(=O)[C@@H](NC(=O)[C@H](C)NC(=O)[C@H](Cc1ccc(OP(=O)(O)O)cc1)NC(=O)[C@@H](NC(=O)[C@@H]1CCCN1C(=O)[C@@H](N)CCC(=O)O)[C@@H](C)CC)[C@@H](C)O)C(=O)N[C@@H](CC(=O)O)C(=O)O [8-mer EPIYA-CD] (H-EPI[pY]ATID-OH) | 4.45 µM | – | – | – | – | – | – | – | – | – | –
2 | CC[C@H](C)[C@H](NC(=O)[C@@H]1CCCN1C(=O)[C@H](CCC(=O)O)NC(=O)[C@H](CC(N)=O)NC(=O)[C@@H](N)CCC(=O)O)C(=O)N[C@@H](Cc1ccc(OP(=O)(O)O)cc1)C(=O)N[C@@H](C)C(=O)N[C@@H](CCCCN)C(=O)N[C@H](C(=O)N[C@@H](CC(N)=O)C(=O)N[C@@H](CCCCN)C(=O)N[C@@H](CCCCN)C(=O)N[C@@H](CCCCN)C(=O)O)C(C)C [EPIYA-A] (H-ENEPI[pY]AKVNKKK-OH) | – | 539 ± 24.2 µM | 180 ± 37.4 µM | 8.28 ± 0.67 µM | 25.5 ± 1.5 µM | 16.4 ± 0.47 µM | 133 ± 6.95 µM | 419 ± 18.6 µM | 23.4 ± 1.03 µM | – | –
3 | CC[C@H](C)[C@H](NC(=O)[C@@H]1CCCN1C(=O)[C@H](CCC(=O)O)NC(=O)[C@H](CCC(=O)O)NC(=O)[C@@H]1CCCN1)C(=O)N[C@@H](Cc1ccc(OP(=O)(O)O)cc1)C(=O)N[C@@H](C)C(=O)N[C@@H](CCC(N)=O)C(=O)N[C@H](C(=O)N[C@@H](C)C(=O)N[C@@H](CCCCN)C(=O)N[C@@H](CCCCN)C(=O)N[C@H](C(=O)O)C(C)C)C(C)C [EPIYA-B] (H-PEEPI[pY]AQVAKKV-OH) | – | 532 ± 47.5 µM | 171 ± 36 µM | 6.6 ± 0.6 µM | 21.4 ± 1.33 µM | 17.9 ± 0.95 µM | 143 ± 17.4 µM | 303 ± 16.2 µM | 18.6 ± 1.25 µM | – | –
4 | CC[C@H](C)[C@H](NC(=O)[C@@H](NC(=O)[C@H](C)NC(=O)[C@H](Cc1ccc(OP(=O)(O)O)cc1)NC(=O)[C@@H](NC(=O)[C@@H]1CCCN1C(=O)[C@H](CCC(=O)O)NC(=O)[C@@H]1CCCN1C(=O)[C@@H](N)CO)[C@@H](C)CC)[C@@H](C)O)C(=O)N[C@@H](CC(=O)O)C(=O)N[C@@H](CC(=O)O)C(=O)N[C@@H](CC(C)C)C(=O)NCC(=O)O [EPIYA-C] (H-SPEPI[pY]ATIDDLG-OH) | – | 119 ± 4.93 µM | 22.4 ± 2.88 µM | 0.96 ± 0.14 µM | 2.78 ± 0.14 µM | 2.79 ± 0.18 µM | 12.9 ± 1.38 µM | 77.5 ± 3.12 µM | 2.96 ± 0.14 µM | – | –
5 | CC[C@H](C)[C@H](NC(=O)[C@@H](NC(=O)[C@H](C)NC(=O)[C@H](Cc1ccc(OP(=O)(O)O)cc1)NC(=O)[C@@H](NC(=O)[C@@H]1CCCN1C(=O)[C@H](CCC(=O)O)NC(=O)[C@@H]1CCCN1C(=O)[C@@H](N)CO)[C@@H](C)CC)[C@@H](C)O)C(=O)N[C@@H](CC(=O)O)C(=O)N[C@@H](Cc1ccccc1)C(=O)N[C@@H](CC(=O)O)C(=O)N[C@@H](CCC(=O)O)C(=O)O [EPIYA-D] | – | 116 ± 6.61 µM | 24.6 ± 2.23 µM | 1.14 ± 0.16 µM | 3.46 ± 0.2 µM | 2.69 ± 0.19 µM | 15.5 ± 2.77 µM | 76.8 ± 5.16 µM | 3.16 ± 0.13 µM | – | –
6 | FcgR2B: Tyr-phosphorylated FcgR2B-ITIM peptide from the authors' previous study (ENTITYSLLMHPD; not fully specified; phospho-Tyr292 (ITIM tyrosine); an 8-mer form (289-296, pY-3 to pY+4) was also used in the cited study) | – | – | – | – | – | – | – | – | – | 0.4 µM | –
7 | c-MET: Y1356-phosphorylated c-MET C-terminus peptide from the authors' previous study (NATYVNVK; not fully specified; phospho-Tyr1356) | – | – | – | – | – | – | – | – | – | – | 7.43 µM

Source: PMC9569640, “Structural Insights into the Binding Propensity of Human SHIP2 SH2 to Oncogenic CagA Isoforms from Helicobacter pylori” (International Journal of Molecular Sciences, 2022)
